From PMC5068912 (Psychopharmacology, 2016)
Where a name gives a salt, the structure may show the parent alone. Read-outs that look alike come from different tables or passages of the source.

Legend:
DOR [1] = details: mouse, in vivo
DOR [2] = details: in vitro; ref Mosberg et al. 2014; cited from earlier work
DOR [3] = details: in vitro; ref Mosberg et al. 2014; cited from earlier work; remark: listed apart in the source
MOR knock-out mice = details: ip, up to 32 mg/kg, n=6
mice [4] = details: mouse, in vivo; cited from earlier work
C57BL/6 wild-type mice [5] = details: mouse, in vivo
MOR [6] = details: cited from earlier work
C57BL/6 wild-type mice [7] = details: for ED50, WWTW antinociception: mean ± SEM
MOR [8] = details: in vitro; ref Mosberg et al. 2014; cited from earlier work
C57BL/6 wild-type mice [9] = details: mouse, in vivo; remark: listed apart in the source
MOR [10] = details: pH 7.4
mice [11] = details: 10 mg/kg ip; ref Ramabadran 1982; cited from earlier work

Oc1ccc2c3c1O[C@H]1c4[nH]c5ccccc5c4C[C@@]4(O)[C@@H](C2)N(CC2CC2)CC[C@]314 [NTI, Naltrindole HCl, reference compound]
SNC80-induced decrease in immobility after pretreatment (DOR [1]): blocked
immobility in NTI pretreated mice vs vehicle treated mice (DOR [1]): not statistically different from immobility in vehicle treated mice

Dmt-c(SEtS)[DCys-Aic-DPen]-Ser(β-glucose)-NH2 [VRP26]
antagonism at DOR (DOR [2]): antagonism at DOR
affinity for DOR (DOR [3]): low nanomolar affinity
increase in tail withdrawal latency (MOR knock-out mice): failed to produce a significant increase in tail withdrawal latency up to 32 mg/kg
acute tolerance (mice [4]): does not produce acute tolerance
antinociception, WWTW (mice [4]): dose-dependent antinociception
tail withdrawal latency, wild type vs MOR knock-out littermates (wild type littermates; 10 mg/kg ip, t(10) = 9.161, p < 0.0001): significantly increased withdrawal latency in wild type mice as compared with MOR knock-out littermates
dose producing maximal antinociceptive effect (wild type littermates; ip, wild type littermates): 10 mg/kg
ED50, WWTW antinociception (wild type littermates; ip, wild type littermates of MOR knock-out mice, mean ± SEM, n=6): 4.77 ± 0.32 mg/kg
ED50 of VRP26, day 1, saline treated group (C57BL/6 wild-type mice [5]): 5.35 ± 0.17 mg/kg
ED50 of VRP26, day 8, saline treated group (C57BL/6 wild-type mice [5]): 5.07 ± 0.23 mg/kg
shift in the dose response curve after chronic treatment (C57BL/6 wild-type mice [5]): no shift in the dose response curve
affinity balance between MOR and DOR (MOR [6]; discussion statement, source not given there): balanced affinity between MOR and DOR
affinity for MOR (MOR [6]; in vitro, ref Mosberg et al. 2014): low nanomolar affinity
effect of pretreatment (vehicle vs MNTX) on VRP26 antinociception (C57BL/6 wild-type mice [7]; 10 mg/kg MNTX ip, two way ANOVA, effect of dose F(4, 40) = 393.6, p < 0.0001): no effect of pretreatment (vehicle vs MNTX)
ED50, WWTW antinociception (C57BL/6 wild-type mice [7]; VRP26 ip, pretreated with 10 mg/kg MNTX ip, n=6): 4.73 ± 0.13 mg/kg
dose-dependence of tail withdrawal latency increase (C57BL/6 wild-type mice [7]; VRP26 ip, vehicle and 10 mg/kg MNTX pretreated mice, n=6): dose-dependent increases in tail withdrawal latency
ED50, WWTW antinociception (C57BL/6 wild-type mice [7]; VRP26 ip, vehicle pretreated mice, n=6): 4.73 ± 0.22 mg/kg
dose producing maximal response (C57BL/6 wild-type mice [7]; ip, both vehicle and MNTX pretreated mice): 10 mg/kg
agonist activity at MOR (MOR [8]): agonist activity at MOR similar to morphine
dose producing maximal antinociceptive effect (C57BL/6 wild-type mice [9]): 10 mg/kg
lowest, maximally-effective, acute dose in the WWTW assay (C57BL/6 wild-type mice [9]): 10 mg/kg
ED50, WWTW antinociception (C57BL/6 wild-type mice [9]; ip): 5.44 ± 0.10 mg/kg
ED50, WWTW antinociception (C57BL/6 wild-type mice [9]; sc): 5.08 ± 0.23 mg/kg
relative efficacy at MOR (MOR [10]): 0.28
SNC80-induced decrease in immobility after pretreatment (DOR [1]): partially blocked SNC80-induced decreases in immobility
immobility, compound alone vs control (DOR [1]; sc, 10 mg/kg): no effect on immobility as compared with control

C[N+]1(CC2CC2)CC[C@]23c4c5ccc(O)c4O[C@H]2C(=O)CC[C@@]3(O)[C@H]1C5 (some centres unmarked) [MNTX, methylnaltrexone HBr]
block of opioid effects (mice [11]): block peripheral, but not central, effects of opioids
